Results on 21 compounds are retold here after patent US8580965B2, “Substituted sulfonamide compounds” (Gruenenthal GmbH, priority 2006, dated 2013).

Structures can show the parent of a compound that is named as a salt.

The target in experiment [1] is T1, human B1R receptor (bradykinin 1 receptor) (Homo sapiens, UniProt P46663).
T1 construct: host or cells: CHO K1 cells (hB1R cells)
T1 sequence (P46663 1-353): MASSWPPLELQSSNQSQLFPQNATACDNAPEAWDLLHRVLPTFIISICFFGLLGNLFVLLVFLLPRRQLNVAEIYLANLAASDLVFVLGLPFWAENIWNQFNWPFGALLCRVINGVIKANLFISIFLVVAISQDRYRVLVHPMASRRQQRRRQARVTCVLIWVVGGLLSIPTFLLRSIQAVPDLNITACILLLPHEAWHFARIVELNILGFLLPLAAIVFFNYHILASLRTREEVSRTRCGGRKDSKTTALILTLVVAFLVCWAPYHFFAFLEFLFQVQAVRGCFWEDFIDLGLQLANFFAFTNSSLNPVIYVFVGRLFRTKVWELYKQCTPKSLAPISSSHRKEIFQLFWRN
The experiment in a line: FLIPR Ca2+ assay (Fluo-4) on CHO K1 cells stably transfected with the human B1R gene; % activation and % inhibition at 10 μM. It is filed as cell-based. As to conditions: CHO-K1, test substance 10 μM; CHO K1 hB1R cells; Ca2+ inflow after 0.5 nM Lys-Des-Arg9-bradykinin; read-out: B1R antagonism, human [10 μM] % inhibition. The method, boiled down:
(§1)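 CHO K1 cells stably expressing human or rat B1R, Fluo-4 loaded, read by FLIPR (peak fluorescence). Compound at 10 µM first gives % activation versus agonist; after 10 min, agonist (human: 0.5 nM Lys-Des-Arg9-bradykinin; rat: 100 nM Des-Arg9-bradykinin) gives % inhibition relative to maximal inhibition.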

For experiment [2], the target named is T2, B1R receptor of the rat (bradykinin 1 receptor) (Rattus norvegicus, UniProt P97583).
T2 construct: host or cells: CHO K1 cells (rB1R cells)
T2 sequence (P97583 1-337): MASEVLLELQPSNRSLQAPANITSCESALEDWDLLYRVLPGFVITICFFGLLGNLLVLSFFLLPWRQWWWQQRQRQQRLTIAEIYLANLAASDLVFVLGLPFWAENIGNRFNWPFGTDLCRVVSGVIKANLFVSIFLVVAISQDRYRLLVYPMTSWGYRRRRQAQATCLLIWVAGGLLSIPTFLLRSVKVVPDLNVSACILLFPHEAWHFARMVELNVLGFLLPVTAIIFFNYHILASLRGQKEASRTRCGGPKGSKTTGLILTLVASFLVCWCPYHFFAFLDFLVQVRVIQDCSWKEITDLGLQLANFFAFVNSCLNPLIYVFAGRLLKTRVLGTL
The experiment in a line: FLIPR Ca2+ assay (Fluo-4) on CHO K1 cells stably transfected with the B1R gene of the rat; % activation and % inhibition at 10 μM. The conditions noted are these: CHO-K1, test substance 10 μM; CHO K1 rB1R cells; Ca2+ inflow after 100 nM Des-Arg9-bradykinin; read-out: B1R antagonism, rat [10 μM] % inhibition. In kind it is cell-based. A digest of the protocol:
as §1

As to `O=C(COCC1CCCCN1S(=O)(=O)c1csc2ccccc12)N1CCC(O)(Cc2ccccc2)CC1` (stereo not drawn) [Example 274, 2-((1-(benzo[b]thiophen-3-ylsulfonyl)piperidin-2-yl)methoxy)-1-(4-benzyl-4-hydroxypiperidin-1-yl)ethanone], the results for the inhibition at 10 µM in experiment [1] and in experiment [2] were 96.4% and 76%, respectively.
On to `COc1cc(C)cc(C)c1S(=O)(=O)N1CCC(OCC(=O)N2CCC(O)(Cc3ccccc3)CC2)C1` (stereo not drawn) [Example 265, 1-(4-benzyl-4-hydroxypiperidin-1-yl)-2-(1-(2-methoxy-4,6-dimethylphenylsulfonyl)pyrrolidin-3-yloxy)ethanone], for which the inhibition at 10 µM in experiment [1] amounted to 54.1%; in experiment [2], 29.5%.
Consider `COc1cc(C)c(S(=O)(=O)N2CCCCC2COCC(=O)N2CCC(O)(c3ccc(Cl)c(C(F)(F)F)c3)CC2)c(C)c1` (stereo not drawn) [Example 246, 1-(4-(4-chloro-3-(trifluoromethyl)phenyl)-4-hydroxypiperidin-1-yl)-2-((1-(4-methoxy-2,6-dimethylphenylsulfonyl)piperidin-2-yl)methoxy)ethanone], for which the inhibition at 10 µM in experiment [1] amounted to 103%; in experiment [2], 99%.
The matching figures for `COc1cc(C)c(S(=O)(=O)N2CCCC2COCC(=O)N2CCC(O)(c3ccccc3)CC2)c(C)c1` (stereo not drawn) [Example 215, 1-(4-hydroxy-4-phenylpiperidin-1-yl)-2-((1-(4-methoxy-2,6-dimethylphenylsulfonyl)pyrrolidin-2-yl)methoxy)ethanone]: 104% and 102%.
Taken in the same sequence, the figures for `O=C(COCC1Cc2ccccc2CN1S(=O)(=O)c1ccc(Cl)cc1Cl)N1CCC(O)(c2cccnc2)CC1` (stereo not drawn) [Example 131, 2-((2-(2,4-dichlorophenylsulfonyl)-1,2,3,4-tetrahydroisoquinolin-3-yl)methoxy)-1-(4-hydroxy-4-(pyridin-3-yl)piperidin-1-yl)ethanone hydrochloride] were 102% and 100%.
Regarding `COc1cc(C)c(S(=O)(=O)N2CCC(COCC(=O)N3CCC(O)(c4ccc(Cl)c(C(F)(F)F)c4)CC3)C2)c(C)c1` (stereo not drawn) [Example 228, 1-(4-(4-chloro-3-(trifluoromethyl)phenyl)-4-hydroxypiperidin-1-yl)-2-((1-(4-methoxy-2,6-dimethylphenylsulfonyl)pyrrolidin-3-yl)methoxy)ethanone], the inhibition at 10 µM in experiment [1] was determined as 95%; in experiment [2], 101%.
`O=C(COC[C@@H]1Cc2ccccc2CN1S(=O)(=O)c1ccc(Cl)cc1Cl)N1CCC(O)(c2cccnc2)CC1` [Example 129, (S)-2-((2-(2,4-dichlorophenylsulfonyl)-1,2,3,4-tetrahydroisoquinolin-3-yl)methoxy)-1-(4-hydroxy-4-(pyridin-3-yl)piperidin-1-yl)ethanone]: the inhibition at 10 µM was found to be 103% in experiment [1] and 97.3% in experiment [2].
Taken in the same sequence, the figures for `Cc1cc(C)c(S(=O)(=O)N2CCCCC2COCC(=O)N2CCC(O)(c3ccc(Cl)cc3)CC2)c(C)c1` (stereo not drawn) [Example 66, 1-(4-(4-chlorophenyl)-4-hydroxypiperidin-1-yl)-2-((1-(mesitylsulfonyl)piperidin-2-yl)methoxy)ethanone] were 84.5% and 99.2%.
Consider `O=C(COCC1CCCN1S(=O)(=O)c1cc(Cl)sc1Cl)N1CCC(O)(c2ccc(Cl)c(C(F)(F)F)c2)CC1` (stereo not drawn) [Example 223, 1-(4-(4-chloro-3-(trifluoromethyl)phenyl)-4-hydroxypiperidin-1-yl)-2-((1-(2,5-dichlorothiophen-3-ylsulfonyl)pyrrolidin-2-yl)methoxy)ethanone], for which the inhibition at 10 µM turned out to be 15.1% in experiment [1] and 99.5% in experiment [2].
The matching figures for `O=C(COCC1CCCCN1S(=O)(=O)c1ccc(C(F)(F)F)cc1)N1CCC(O)(c2cccnc2)CC1` (stereo not drawn) [Example 155, 1-(4-hydroxy-4-(pyridin-3-yl)piperidin-1-yl)-2-((1-(4-(trifluoromethyl)phenylsulfonyl)piperidin-2-yl)methoxy)ethanone]: 30.3% and 60.3%.
The matching figures for `O=C(COCC1CCCN1S(=O)(=O)c1c(Cl)cc(C(F)(F)F)cc1Cl)N1CCC(O)(c2ccc(Cl)c(C(F)(F)F)c2)CC1` (stereo not drawn) [Example 171, 1-(4-(4-chloro-3-(trifluoromethyl)phenyl)-4-hydroxypiperidin-1-yl)-2-((1-(2,6-dichloro-4-(trifluoromethyl)phenylsulfonyl)pyrrolidin-2-yl)methoxy)ethanone]: 0.56% and 104%.
As to `CN(CCOCC(=O)N1CCC(O)(c2ccccn2)CC1)S(=O)(=O)c1ccc(F)cc1` [Example 56, 4-fluoro-N-{2-[2-(4′-hydroxy-3′,4′,5′,6′-tetrahydro-2′H-[2,4′]bipyridinyl-1′-yl)-2-oxo-ethoxy]-ethyl}-N-methyl-phenylsulfonamide], the inhibition at 10 µM in experiment [1] is -13.5%; in experiment [2], -1.13%.
Take `CN(CCOCC(=O)N1CCC(O)(c2ccccn2)CC1)S(=O)(=O)c1cc(F)ccc1F` [Example 71, 2,5-difluoro-N-{2-[2-(4′-hydroxy-3′,4′,5′,6′-tetrahydro-2′H-[2,4′]bipyridinyl-1′-yl)-2-oxo-ethoxy]-ethyl}-N-methyl-phenylsulfonamide]: the inhibition at 10 µM is -0.46% in experiment [1] and 4.46% in experiment [2].
Taken in the same sequence, the figures for `O=C(COCC1CCCCN1S(=O)(=O)c1cccc(C(F)(F)F)c1)N1CCC(O)(c2ccccn2)CC1` (stereo not drawn) [Example 96, 1-(4′-hydroxy-3′,4′,5′,6′-tetrahydro-2′H-[2,4′]bipyridinyl-1′-yl)-2-[1-(3-trifluoromethyl-phenylsulfonyl)-piperidin-2-ylmethoxy]-ethanone] were 50.5% and 46.2%.
For the compound `COc1cc(C)c(S(=O)(=O)N(CCOCC(=O)N2CCC(O)(c3cccnc3)CC2)Cc2ccccc2)c(C)c1` [Example 130, N-benzyl-N-(2-(2-(4-hydroxy-4-(pyridin-3-yl)piperidin-1-yl)-2-oxoethoxy)ethyl)-4-methoxy-2,6-dimethylphenylsulfonamide], the inhibition at 10 µM is 103% in experiment [1] and 98.6% in experiment [2].
The matching figures for `COc1cc(C)c(S(=O)(=O)N(CCOCC(=O)N2CCC(O)(Cc3ccccc3)CC2)CC(C)C)c(C)c1C` [Example 211, N-(2-(2-(4-benzyl-4-hydroxypiperidin-1-yl)-2-oxoethoxy)ethyl)-N-isobutyl-4-methoxy-2,3,6-trimethylphenylsulfonamide]: 99.6% and 100%.
The matching figures for `CN(c1ccccc1CCC(=O)N1CCC(O)(c2cccnc2)CC1)S(=O)(=O)c1ccc(Cl)c(Cl)c1` [Example 125, 3,4-dichloro-N-(2-(3-(4-hydroxy-4-(pyridin-3-yl)piperidin-1-yl)-3-oxopropyl)phenyl)-N-methylphenylsulfonamide]: 93.2% and 91.4%.
The matching figures for `Cc1cc(S(=O)(=O)N(C)CCOCC(=O)N2CCC(O)(Cc3ccccc3)CC2)c(C)cc1Cl` [Example 153, N-(2-(2-(4-benzyl-4-hydroxypiperidin-1-yl)-2-oxoethoxy)ethyl)-4-chloro-N,2,5-trimethylphenylsulfonamide]: 71.8% and 69.1%.
For `COc1cc(C)c(S(=O)(=O)N2CCC(COCC(=O)N3CCC(O)(c4cccs4)CC3)C2)c(C)c1` (stereo not drawn) [Example 267, 1-(4-hydroxy-4-(thiophen-2-yl)piperidin-1-yl)-2-((1-(4-methoxy-2,6-dimethylphenylsulfonyl)pyrrolidin-3-yl)methoxy)ethanone], the inhibition at 10 µM in experiment [1] was 90.6%; in experiment [2] it was 97.8%.
Taken in the same sequence, the figures for `Cc1cc(Cl)cc(Cl)c1S(=O)(=O)N(C)CCOCC(=O)N1CCC(O)(Cc2ccccc2)CC1` [Example 106, N-{2-[2-(4-benzyl-4-hydroxy-piperidin-1-yl)-2-oxo-ethoxy]-ethyl}-2,4-dichloro-6,N-dimethyl-phenylsulfonamide] were 97.8% and 96.1%.
Take `O=C(COCC1CCCN1S(=O)(=O)c1c(Cl)cccc1Cl)N1CCC(O)(c2ccc(Br)cc2)CC1` (stereo not drawn) [Example 219, 1-(4-(4-bromophenyl)-4-hydroxypiperidin-1-yl)-2-((1-(2,6-dichlorophenylsulfonyl)pyrrolidin-2-yl)methoxy)ethanone]: the inhibition at 10 µM in experiment [1] is 102%; in experiment [2] it was 101%.

In general, inhibition refers to the drop in the measured response relative to a control, in per cent.
